# Source: ChEMBL document CHEMBL5303573, “Mapping human microbiome drug metabolism by gut bacteria and their genes” (Nature, 2019)
# Legend:
# [1] = The drug is tested on Bifidobacterium ruminantium strain: fecal isolate for biotransformation. The drug concentrations were measured before and after a 12-h incubation by liquid-chromatography-coupled mass spectrometry (LC–MS); details: 2 µM
# [2] = The drug is tested on Edwardsiella tarda strain: ATCC23685 for biotransformation. The drug concentrations were measured before and after a 12-h incubation by liquid-chromatography-coupled mass spectrometry (LC–MS); details: 2 µM
# [3] = The drug is tested on Ruminococcus torques strain: ATCC27756 for biotransformation. The drug concentrations were measured before and after a 12-h incubation by liquid-chromatography-coupled mass spectrometry (LC–MS); format: ADME; set-up: dose 2 uM, timepoint 0 vs 12 hours; details: 2 µM
# [4] = anaerostipes sp., 12 h, 2 µM
# Description: The drug is tested on Anaerostipes sp. strain: fecal isolate for biotransformation. The drug concentrations were measured before and after a 12-h incubation by liquid-chromatography-coupled mass spectrometry (LC–MS)
# [5] = The drug is tested on Bacteroides pectinophilus strain: ATCC43243 for biotransformation. The drug concentrations were measured before and after a 12-h incubation by liquid-chromatography-coupled mass spectrometry (LC–MS); details: 2 µM
# [6] = The drug is tested on Enterobacter cancerogenus strain: ATCC35316 for biotransformation. The drug concentrations were measured before and after a 12-h incubation by liquid-chromatography-coupled mass spectrometry (LC–MS); details: 2 µM
# [7] = The drug is tested on Ruminococcus gnavus strain: ATCC29149 for biotransformation. The drug concentrations were measured before and after a 12-h incubation by liquid-chromatography-coupled mass spectrometry (LC–MS); details: mediterraneibacter gnavus, 2 µM
# [8] = bacteroides stercoris, 12 h, 2 µM
# Description: The drug is tested on Bacteroides stercoris strain: ATCC43183 for biotransformation. The drug concentrations were measured before and after a 12-h incubation by liquid-chromatography-coupled mass spectrometry (LC–MS)
# [9] = The drug is tested on Bacteroides ovatus strain: ATCC8483 for biotransformation. The drug concentrations were measured before and after a 12-h incubation by liquid-chromatography-coupled mass spectrometry (LC–MS); details: 2 µM
# [10] = roseburia intestinalis, 12 h, 2 µM
# Description: The drug is tested on Roseburia intestinalis strain: L1-82 for biotransformation. The drug concentrations were measured before and after a 12-h incubation by liquid-chromatography-coupled mass spectrometry (LC–MS)
# [11] = The drug is tested on Blautia hansenii strain: DSM20583 for biotransformation. The drug concentrations were measured before and after a 12-h incubation by liquid-chromatography-coupled mass spectrometry (LC–MS); details: 2 µM
# [12] = bacteroides fragilis, 12 h, 2 µM
# Description: The drug is tested on Bacteroides fragilis strain: DS-208 for biotransformation. The drug concentrations were measured before and after a 12-h incubation by liquid-chromatography-coupled mass spectrometry (LC–MS)
# [13] = The drug is tested on Bacteroides cellulosilyticus strain: DSM14838 for biotransformation. The drug concentrations were measured before and after a 12-h incubation by liquid-chromatography-coupled mass spectrometry (LC–MS); details: 2 µM
# [14] = segatella copri, 12 h, 2 µM
# Description: The drug is tested on Prevotella copri strain: DSM18205 for biotransformation. The drug concentrations were measured before and after a 12-h incubation by liquid-chromatography-coupled mass spectrometry (LC–MS)
# [15] = The drug is tested on Eggerthella lenta strain: ATCC25559 for biotransformation. The drug concentrations were measured before and after a 12-h incubation by liquid-chromatography-coupled mass spectrometry (LC–MS); details: 2 µM
# [16] = enterocloster bolteae, 12 h, 2 µM
# Description: The drug is tested on Clostridium bolteae strain: ATCCBAA-613 for biotransformation. The drug concentrations were measured before and after a 12-h incubation by liquid-chromatography-coupled mass spectrometry (LC–MS)
# [17] = The drug is tested on Clostridium sp. strain: fecal isolate for biotransformation. The drug concentrations were measured before and after a 12-h incubation by liquid-chromatography-coupled mass spectrometry (LC–MS); details: 2 µM
# [18] = The drug is tested on Bacteroides vulgatus strain: ATCC8482 for biotransformation. The drug concentrations were measured before and after a 12-h incubation by liquid-chromatography-coupled mass spectrometry (LC–MS); details: phocaeicola vulgatus, 2 µM
# [19] = The drug is tested on Clostridium symbiosum strain: ATCC14940 for biotransformation. The drug concentrations were measured before and after a 12-h incubation by liquid-chromatography-coupled mass spectrometry (LC–MS); details: 2 µM
# [20] = bacteroides thetaiotaomicron, 12 h, 2 µM
# Description: The drug is tested on Bacteroides thetaiotaomicron strain: 7330 for biotransformation. The drug concentrations were measured before and after a 12-h incubation by liquid-chromatography-coupled mass spectrometry (LC–MS)
SMILES,Bacterial Biotransformation [1],Bacterial Biotransformation [2],Bacterial Biotransformation [3],Bacterial Biotransformation [4],Bacterial Biotransformation [5],Bacterial Biotransformation [6],Bacterial Biotransformation [7],Bacterial Biotransformation [8],Bacterial Biotransformation [9],Bacterial Biotransformation [10],Bacterial Biotransformation [11],Bacterial Biotransformation [12],Bacterial Biotransformation [13],Bacterial Biotransformation [14],Bacterial Biotransformation [15],Bacterial Biotransformation [16],Bacterial Biotransformation [17],Bacterial Biotransformation [18],Bacterial Biotransformation [19],Bacterial Biotransformation [20]
CCOc1ccc2nc(S(N)(=O)=O)sc2c1 [ETHOXZOLAMIDE],Compound metabolized,Compound metabolized,Compound metabolized,Compound metabolized,Compound metabolized,Compound metabolized,Compound metabolized,Compound metabolized,Compound metabolized,Compound metabolized,Compound metabolized,Compound NOT metabolized,Compound metabolized,Compound metabolized,Compound metabolized,Compound metabolized,Compound metabolized,Compound NOT metabolized,Compound metabolized,Compound metabolized
C[C@@H]1CC[C@H]2[C@@H](C)C(=O)O[C@@H]3O[C@@]4(C)CC[C@@H]1[C@]32OO4 [ARTEMISININ],Compound metabolized,Compound metabolized,Compound metabolized,Compound metabolized,Compound metabolized,Compound metabolized,Compound metabolized,Compound metabolized,Compound metabolized,Compound metabolized,Compound metabolized,Compound metabolized,Compound metabolized,Compound metabolized,Compound metabolized,Compound metabolized,Compound metabolized,Compound metabolized,Compound metabolized,Compound metabolized
